Experimental findings from patent publication US20110281852A1 (priority 2010, published 2011) are described below.

Test [1] relates to GATA-2. The test can be described thus: Immunoblot, GATA-2 protein in 3T3-L1 cells. The class given is cell-based, mouse. The conditions noted are these: DM + 1, 2, 4, 8 μM, 8 days, p<0.05. On the procedure:
Immunoblot Analysis: GATA-2 and GATA-3 protein expression were assessed by Western blot. […] The cells were washed twice with PBS, lysed in a lysis buffer (HEPES-Tx-PI buffer: 10 mM HEPES, 5 mM EDTA, 350 mM Sucrose, 1 ug/ml leupeptin, 1 ug/ml pepstatin, 1% Triton-X, 1 mM PMSF, diluted in water), processed with a 25G needle and centrifuged at 10,000 rpm for 5 min. Protein concentration was determined using the […] according to the Pierce Protein Assay Protocol. Total protein (50 μg) was used for GATA-2 and GATA-3 analysis and was separated by electrophoresis using BioRad Electrophoretic System (60 V for 1 hour followed by 90 V for 5 hours). The protein was then transferred to nitrocellulose membranes at 35 V overnight. The membrane was blocked for 1 hour at room temperature in 5% nonfat milk in Tris-buffered saline (TBS), then washed with Tween-20-TBS (TTBS, 0.1% Tween-20) three times (15 min, 5 min, 5 min), followed by incubation with primary antibodies of GATA-2 (dilution 1:500), GATA-3 (dilution 1:500), β-Actin (dilution 1:1000) at room temperature for 2 hours. The membrane was rinsed three times (15 min, 5 min, 5 min), then incubated at room temperature for 1 hour with Horseradish peroxidase-conjugated second antibody (1:10,000). The membrane was then incubated in ECL reagent for 1 minute. Protein was visualized using UVP image analysis system.

In test [2] the test system is SREBP-1. In words: Real-time RT-PCR, SREBP-1 mRNA in 3T3-L1. The class given is cell-based, mouse. The conditions noted are these: 8 days. The text has this:
Realtime RT-PCR: Real-time reverse transcriptase polymerase chain reaction (RT-PCR) analysis was used to measure mRNA expression of genes SREBP-1, PPARγ, C/EBPα, low density lipoprotein receptor (LDLR), Adiponectin, and fatty acid synthase (FAS) under the control of β-actin. Briefly, total RNA was isolated from 3T3-L1 cells following treatment for 8 days with Trizol reagent (Invitrogen, Carlsbad, Calif., USA) according to the manufacturer's instruction. RNA was quantified using absorption of light at 260 nm, and sample purity was checked by OD 260 nm/280 nm. 0.8 μg of total RNA from each sample was used for reverse transcription reaction using the TaqMan Reverse Transcription Reagents (Applied Biosystems, Foster City, Calif., USA) according to the manufacturers' instructions. PCR was done using the SYBR green Master Mix (Applied Biosystems, Foster City, Calif., USA) according to the manufacturers' instructions. The temperature cycling conditions of amplification were as follows: an initial step of denaturation at 95° C. for 10 min, 40 cycles of denaturation at 95° C. for 30 s, annealing at 55° C. for 30 s, and elongation at 72° C. for 30 s. Realtime RT-PCR was performed using Mx3000P Realtime Thermocyclers (Statagene, La Jolla, Calif., USA). The relative mRNA levels of these genes were calculated by 2-delta delta CT method and normalized with control groups.

Test [3] concerns GATA-2. The test can be described thus: Real-Time RT-PCR, GATA-2 mRNA in epididymal fat of FD mice. The class given is in vivo, mouse. How it is done: RNA and protein purification and quantification from epididymal fat tissues: RNA and protein was isolated from 60 mg of epididymal fat tissues with Trizol (Invitrogen, Carlsbad, Calif., USA) following the protocol recommended by the manufacturers. RNA was dissolved in pure water and quantified at 260/280 nm, and sample integrity was checked by 1.5% agarose gel electrophoresis. Protein concentration was determined using the Micro BCA Protein Assay Kit (Fisher Scientific, Pittsburgh, Pa., USA) according to the manufacturer's instructions.
Quantitative Real-Time RT-PCR: Real-Time reverse transcriptase polymerase chain reaction (RT-PCR) analysis was used to measure mRNA expression of genes PPARγ, C/EBPα, GATA-2 and GATA-3 in the control of β-actin. Total RNA (0.8 μg) from each sample was used for a reverse transcription reaction using the TaqMan Reverse Transcription Reagents (Applied Biosystems, Foster City, Calif., USA) following the manufacturer's instructions. PCR was done using the SYBR green Master Mix (Applied Biosystems, Foster City, Calif., USA) following the manufacturer's instructions. The cycling conditions of amplification were as follows: an initial step of denaturation at 95° C. for 10 min, 40 cycles of denaturation at 95° C. for 30 s, annealing at 55° C. for 30 s, and elongation at 72° C. for 30 s. Real-Time PCR was performed using Mx3000P Real-Time Thermocyclers (Stratagene, La Jolla, Calif., USA). The relative mRNA levels of these genes were calculated by 2-delta delta CT method and normalized with control-treated groups.
On the technique in general: In qPCR the cycle at which signal appears reflects the starting amount.

Test [4] has as its system SERT promoter (5-HTTLPR alleles). The test can be described thus: DRL (dual luciferase reporter) assay, SERT promoter activity of 5-HTTLPR alleles in RN46A cells. The format is cell-based. The conditions noted are these: 2 μM evodiamine. The text has this: The PCR reaction to amplify the 5-HTTLPR alleles for sequencing and creation of reporter constructs contained primers different than those used for the genotyping experiment.
The primer sequences were described previously and are as follows: Forward primer 5′-[…]-3′ (SEQ ID NO:25) and Reverse primer 5′-[…]-3′ (SEQ ID NO:26) (Hu et al., Am J Hum Genet (2006) 78(5):815-826). The PCR products of the six 5-HTTLPR alleles (S, LG, LA, XS, XL-17, and XL-18) were subcloned into the TOPO TA cloning vector pCR2.1-TOPO (Invitrogen) and transformed to One Shot TOP10 competent E. coli cells according to the manufacturer's instructions. In the case of individuals heterozygous for 5-HTTLPR, resulting transformants were screened for the presence of the correct insert using the restriction enzyme EcoR I.
The resulting constructs, created and sequenced, in the pCR2.1-TOPO vector (S, LG, LA, XS, XL-17, and XL-18 alleles) were subcloned to the luciferase reporter vector pGL4.10 [luc2] (Promega) using standard molecular techniques. Additionally, each allele was cloned into pGL4.10 [luc2] in the backwards orientation to ensure that transcriptional effects were the result of consensus promoter sequences. […] The co-transfection with the 5-HTTLPR pGL4.10 constructs (firefly luciferase) and the pRL-SV40 vector (renilla luciferase) to the RN46A raphe-derived cell line using Lipofectamine 2000 (Invitrogen) was described previously. Expression was measured using the Dual-Luciferase Reporter Assay System (Promega) 24 h after transfection with passive lysis buffer.
Relative light units (RLU) for both the firefly and renilla luciferase was measured using a 20/20^n Luminometer (Turner Biosystems, Sunnyvale Calif. 94085) and the ratio between the firefly RLU to renilla RLU in each sample was determined. The values were all normalized to the (S) allele.
(In a reporter assay the amount or activity of a reporter protein is the signal.)

Regarding `COc1ccc2cc3[n+](cc2c1OC)CCc1cc2c(cc1-3)OCO2.[Cl-]` [berberine, Berberine (Chloride Form)], the GATA-2 protein expression entry in test [1] was “increase”. Moreover, the “decrease of SREBP-1 mRNA expression vs clozapine treated group” value in test [2] (8 μM berberine + 15 μM clozapine) stood at 68.9%. Besides, the “decrease of SREBP-1 mRNA expression vs risperidone treated group” value in test [2] (8 μM berberine + 50 μM risperidone) stood at 80.9%. Further, the “GATA-2 mRNA expression increased to” value came to 2.7 fold in test [3] (0.75 mg/kg/day), 3.4 fold in test [3] (1.5 mg/kg/day) and 3.7 fold in test [3] (3 mg/kg/day).

For evodiamine, the “increase of SERT promoter activity vs vehicle” value in test [4] (LA allele) is recorded as 171.5%; in test [4] (LG allele), 288.5%; in test [4] (S allele), 206.9%; in test [4] (XL17 allele) it was 165.6%; in test [4] (XL18 allele) it was 96.3%; in test [4] (XS allele), 74.3%.
